In PubChem BioAssay (NCI):
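Interpolation was linear, between the two tested concentrations surrounding the appropriate level; five concentrations were tested over 48 hours in 96-well plates. GI50 marks 50% less growth. TGI marks complete inhibition of growth.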

Legend:
Assay in all cases: NCI-60 cell line screen, 48 h
ACHN renal = tested on: ACHN renal
CAKI-1 renal = tested on: CAKI-1 renal
NCI-H522 lung = tested on: NCI-H522 lung
NCI/ADR-RES ovarian = tested on: NCI/ADR-RES ovarian
PC-3 prostate = tested on: PC-3 prostate
SF-268 CNS = tested on: SF-268 CNS
SK-MEL-2 melanoma = tested on: SK-MEL-2 melanoma
SR leukemia = tested on: SR leukemia
UACC-257 melanoma = tested on: UACC-257 melanoma
UACC-62 melanoma = tested on: UACC-62 melanoma

Compound	TGI (ACHN renal)	TGI (CAKI-1 renal)	TGI (NCI-H522 lung)	TGI (NCI/ADR-RES ovarian)	TGI (PC-3 prostate)	TGI (SF-268 CNS)	TGI (SK-MEL-2 melanoma)	TGI (SR leukemia)	TGI (UACC-257 melanoma)	TGI (UACC-62 melanoma)	GI50 (NCI/ADR-RES ovarian)	GI50 (PC-3 prostate)
Cc1ccc(C(=O)N(C(C)C)C(C)C)cc1N=NN(C)C	> 100 µM	> 100 µM	43.2 µM	> 100 µM	> 100 µM	98 µM	> 100 µM	> 100 µM	> 100 µM	> 100 µM		
O=C(CC(O)(C(F)(F)F)C(F)(F)F)C(CCCl)C(O)(C(F)(F)F)C(F)(F)F (configuration not stated)	> 100 µM	77.1 µM	> 100 µM	46.7 µM	> 100 µM	> 100 µM	> 100 µM	> 100 µM	91.2 µM	> 100 µM		
Cc1cc2ccccc2c[n+]1CC(O)C[n+]1cc2ccccc2cc1C	> 100 µM	> 100 µM	> 100 µM	> 100 µM	> 100 µM	> 100 µM	> 100 µM	> 100 µM	> 100 µM	> 100 µM		
O=C(O)C(CCc1ccccn1)c1ccccc1 (configuration not stated)	> 100 µM	> 100 µM	> 100 µM	> 100 µM	> 100 µM	> 100 µM	> 100 µM	> 100 µM	> 100 µM	> 100 µM		
CN(CCc1ccc(Cl)c(Cl)c1)[C@H]1CCCC[C@H]1N1CCCC1	> 100 µM	> 100 µM	> 100 µM	> 100 µM	> 100 µM	> 100 µM	> 100 µM	> 100 µM	> 100 µM	> 100 µM		
CN(C)CCOC(=O)COc1ccc(Cl)cc1	> 100 µM	> 100 µM	> 100 µM	> 100 µM	> 100 µM	> 100 µM	> 100 µM	> 100 µM	> 100 µM	> 100 µM		
O=C1NC(=S)N/C1=C/c1ccccc1O	> 100 µM	> 100 µM	> 100 µM	> 100 µM	> 100 µM	> 100 µM	> 100 µM	> 100 µM	> 100 µM	> 100 µM		
CC1=C(C(=O)OCCc2ccc([N+](=O)[O-])cc2)C(c2ccccc2[N+](=O)[O-])C(C(=O)OC(C)C)=C(C)N1 (configuration not stated)	> 100 µM	> 100 µM	7.82 µM	20 µM	18 µM	> 100 µM	40.9 µM	> 100 µM	> 100 µM	58.4 µM		
COC(=O)C(/C(=N/NC(=O)c1ccncc1)C(=O)Nc1ccccc1OC)c1nc2ccc(Cl)cc2[nH]c1=O (configuration not stated)	> 100 µM	> 100 µM	> 100 µM	> 100 µM	> 100 µM	> 100 µM	> 100 µM	> 100 µM	> 100 µM	> 100 µM		
C=CCC(CNC(=O)OCc1ccccc1)O[Si](C)(C)C(C)(C)C (configuration not stated)	> 100 µM	> 100 µM	64.8 µM	> 100 µM	> 100 µM	> 100 µM	34.9 µM	46.4 µM	83.7 µM	> 100 µM		
CCC1(CC)C(=O)CC[C@@]2(C)C1=CC[C@H]1[C@@H]3CC[C@H](O)[C@@]3(C)CC[C@@H]12	> 100 µM	> 100 µM	78.6 µM	> 100 µM	> 100 µM	99.2 µM	> 100 µM	31.8 µM	82.6 µM	> 100 µM		
CC(CCC(=O)O)[C@H]1CCC2[C@H]3C(CC[C@@]21C)[C@@]1(C)CCC(O)C[C@H]1C[C@@H]3O (some centres not stated)	> 100 µM	> 100 µM	> 100 µM	> 100 µM	> 100 µM	> 100 µM	> 100 µM	> 100 µM	> 100 µM	> 100 µM		
C/C(=N\NC(N)=O)C(CN1CCCCC1)C(c1ccccc1)c1c(O)c2ccccc2oc1=O (configuration not stated)	> 100 µM	> 100 µM	> 100 µM	> 100 µM	> 100 µM	> 100 µM	> 100 µM	> 100 µM	> 100 µM	> 100 µM	> 100 µM	95.3 µM
CCOC(=O)c1cc2c(OC(C)=O)ccc(OC(C)=O)c2s1	2.98 µM	8.46 µM	1.07 µM	5.79 µM	5.07 µM	3.85 µM	7.72 µM	> 22.7 µM	4.97 µM	4.08 µM		
C/C(=C/CO[Si](C)(C)C(C)(C)C)C(=O)N(C)c1ccccc1I	31 µM	29.9 µM	31.5 µM	37.1 µM	27 µM	33.4 µM	30.5 µM	51.7 µM	26.4 µM	28 µM		
COC(=O)C1=C(O)C(C(=O)OC)[C@@]2(O)[C@@H](C(=O)OC)C(c3ccc(OC(=O)/C(=C/c4ccc(Cl)cc4)c4ccc(Cl)cc4)cc3)C[C@@H]1[C@@H]2C(=O)OC (some centres not stated)	> 100 µM	85.9 µM	> 100 µM	> 100 µM	> 100 µM	> 100 µM	38.2 µM	> 100 µM	> 100 µM	24 µM		

Compound	TGI (ACHN renal)	TGI (CAKI-1 renal)	TGI (NCI-H522 lung)	TGI (NCI/ADR-RES ovarian)	TGI (PC-3 prostate)	TGI (SF-268 CNS)	TGI (SK-MEL-2 melanoma)	TGI (SR leukemia)	TGI (UACC-257 melanoma)	TGI (UACC-62 melanoma)	GI50 (NCI/ADR-RES ovarian)	GI50 (PC-3 prostate)
Cn1c(=O)c2c(-c3ccccc3)onc2n(C)c1=O	> 100 µM	> 100 µM	> 100 µM	> 100 µM	> 100 µM	> 100 µM	81.8 µM	75.2 µM	> 100 µM	> 100 µM		
CC[C@]12C=CCN3CCC4(c5cc(N=Nc6ccccc6)c(OC)cc5N(C)[C@H]4[C@@](O)(C(=O)OC)[C@@H]1OC(C)=O)[C@@H]32 (some centres not stated)	30.1 µM	69.8 µM	33 µM	55.6 µM	29.8 µM	33 µM	31.4 µM	45.5 µM	34.9 µM	29.4 µM		
N#CC1=C(N)C(C#N)(C#N)C(c2ccc(F)cc2)C=C1C1CC1 (configuration not stated)	25.6 µM	28.2 µM	14.1 µM	41.8 µM	21.8 µM	16 µM	19.4 µM	12.9 µM	21.1 µM	21.5 µM		
CCOC(=O)c1nc2c3c(ncn2n1)Oc1c(c(-c2ccccc2)nn1-c1ccccc1)C3c1ccc(Cl)cc1 (configuration not stated)	> 100 µM	> 100 µM	> 100 µM	> 100 µM	> 100 µM	> 100 µM	> 100 µM	> 100 µM	> 100 µM	> 100 µM		
CCOC(=O)c1ccc2nc(NC(=O)COC(=O)CSc3nc(C)cc(C)n3)sc2c1	> 100 µM	> 100 µM	> 100 µM	> 100 µM	> 100 µM	> 100 µM	> 100 µM	> 100 µM	> 100 µM	> 100 µM		
COP(=O)(OC)C(N)CCSC (configuration not stated)	> 100 µM	> 100 µM	> 100 µM	> 100 µM	> 100 µM	> 100 µM	> 100 µM	> 100 µM	> 100 µM	> 100 µM		
O=C(C1=C(C(=O)c2ccccc2)SC2(S1)C(C(=O)c1ccccc1)=C(C(=O)c1ccccc1)Sc1c2ssc1=O)c1ccccc1	> 100 µM	> 100 µM	85.5 µM	> 100 µM	> 100 µM	> 100 µM	> 100 µM	> 100 µM	> 100 µM	44.9 µM		
CC(=O)O[C@H]1C#C/C=C\C#CC[C@@H]2C(=O)N(C(=O)OC(C)(C)C)[C@@H]12	28.8 µM	> 54 µM	47.8 µM	74.7 µM	> 100 µM	> 75.2 µM	> 93 µM	> 100 µM	> 100 µM	> 100 µM		
OC1CCCC1C(O)(C(F)(F)F)C(F)(F)F (configuration not stated)	> 100 µM	> 100 µM	> 100 µM	> 100 µM	> 100 µM	> 100 µM	> 100 µM	> 100 µM	> 100 µM	> 100 µM		
Nc1ccc2c(c1)C(=O)c1ccccc1-2	> 100 µM	> 100 µM	> 100 µM	> 100 µM	> 100 µM	> 100 µM	> 100 µM	> 100 µM	> 100 µM	> 100 µM		
C/C(O)=C(\C=N\C(N)=S)C(=O)Nc1ccccc1C	> 100 µM	> 100 µM	> 100 µM	> 100 µM	> 100 µM	> 100 µM	> 100 µM	> 100 µM	> 100 µM	> 100 µM		
COc1ccc(/C=C/c2cc(O)cc(OC)c2)cc1	> 100 µM	> 100 µM	> 100 µM	> 100 µM	> 100 µM	> 100 µM	> 100 µM	> 100 µM	> 100 µM	> 100 µM		
O=C(N/N=C\c1cccc2ccccc12)Nc1ccc([N+](=O)[O-])cc1	> 72.7 µM	> 100 µM	> 53.9 µM	> 71.4 µM	> 70.5 µM	> 88.9 µM	> 68.7 µM	> 100 µM	> 100 µM	> 68.5 µM		
O=C1/C(=C/c2ccccc2)CCc2ccc(Cl)nc21	27.4 µM	10.3 µM	10.4 µM	> 63.7 µM	29.9 µM	> 64.8 µM	37.8 µM	9.01 µM	20.4 µM	22.8 µM		
Cc1cc2ccccc2n1CC(=O)NCC(C)C	> 100 µM	> 100 µM	> 100 µM	> 100 µM	> 100 µM	> 100 µM	> 100 µM	> 100 µM	> 100 µM	> 100 µM		
C#CCNC(Cc1cnc[nH]1)C(=O)O (configuration not stated)	> 100 µM	> 100 µM	> 100 µM	> 100 µM	> 100 µM	> 100 µM	> 100 µM	> 100 µM	> 100 µM	> 100 µM		
